Experimental findings from PubChem BioAssay (NCI) are described below.

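96-well plates; 48 h exposure; 5 concentrations. Endpoints by linear interpolation between flanking doses. Not reached: highest tested concentration assigned. At the TGI there is no net growth.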 Where only a bound is given, the exact number is not on record here.

Some test systems named below: LOX IMVI melanoma; CCRF-CEM leukemia; NCI-H522 lung; NCI-H226 lung; MDA-MB-231 breast; SK-OV-3 ovarian; SK-MEL-28 melanoma; SN12C renal; COLO 205 colon; CAKI-1 renal.
What all share (assay): inhibition of tumour cell growth, NCI panel, 48 h

On to `C=CCOC1=C(OC(C)=O)C(C2COC(C)(C)O2)OC1=O` (stereo unspecified), for which the TGI is 24 µM in the test on LOX IMVI melanoma; 41.7 µM with CCRF-CEM leukemia; 5.45 µM in the test on NCI-H522 lung; greater than 100 µM with NCI-H226 lung; 34.5 µM with MDA-MB-231 breast; greater than 100 µM with SK-OV-3 ovarian. Moreover, the TGI in the test with SK-MEL-28 melanoma stood at 46.7 µM; in the test with SN12C renal it was 70.8 µM; in the test with COLO 205 colon, 36.9 µM; with CAKI-1 renal, 3.89 µM.
For the compound `Oc1ccccc1/C=N/N1C(=S)N(c2ccccc2)C(=Nc2ccccc2)C1=Nc1ccccc1`, the TGI in the test with LOX IMVI melanoma was 36.2 µM; in the test on CCRF-CEM leukemia it was greater than 62.9 µM; with NCI-H522 lung, 12.6 µM; with NCI-H226 lung, 26.4 µM; in the test on MDA-MB-231 breast, 24.1 µM; in the test on SK-OV-3 ovarian it was 30.7 µM. Moreover, the TGI came out at 80.5 µM in the test on SK-MEL-28 melanoma, 28.2 µM in the test with SN12C renal, 11.3 µM in the test with COLO 205 colon and 29.6 µM in the test on CAKI-1 renal.
On to `O=c1oc2ccc([N+](=O)[O-])cc2cc1-c1csc(-c2ccccc2)n1`, for which the TGI in the test with LOX IMVI melanoma, in the test on CCRF-CEM leukemia, in the test on NCI-H522 lung, in the test with NCI-H226 lung, in the test with MDA-MB-231 breast and with SK-OV-3 ovarian was greater than 100 µM each time. For the same compound, the TGI in the test with SK-MEL-28 melanoma, with SN12C renal, in the test with COLO 205 colon and in the test on CAKI-1 renal was greater than 100 µM each time.
Turning to `O=[N+]([O-])C(=C(\Cl)NCCO)/C(Cl)=C(/Cl)Br`, the TGI in the test with LOX IMVI melanoma worked out at 2.19 µM; with CCRF-CEM leukemia it was 2.01 µM; with NCI-H522 lung it was 2.88 µM; in the test with NCI-H226 lung, 17.7 µM; with MDA-MB-231 breast it was 3.99 µM; in the test with SK-OV-3 ovarian it was 28.5 µM. Further, the TGI in the test with SK-MEL-28 melanoma came to 5.51 µM; in the test with SN12C renal, 5.77 µM; with COLO 205 colon it was 2.74 µM; with CAKI-1 renal, 1.85 µM.
In the case of `O=C(Nc1ccccn1)c1cc2c(cc1Cl)Sc1nccn1S2(=O)=O`, the TGI in the test with LOX IMVI melanoma was greater than 100 µM; in the test on CCRF-CEM leukemia it was 95.9 µM; with NCI-H522 lung it was greater than 100 µM; in the test on NCI-H226 lung it was 57.3 µM; in the test with MDA-MB-231 breast, 53 µM; in the test on SK-OV-3 ovarian it was greater than 100 µM. In addition, the TGI in the test with SK-MEL-28 melanoma is greater than 100 µM; in the test on SN12C renal, greater than 100 µM; in the test with COLO 205 colon, 83.5 µM; in the test on CAKI-1 renal it was greater than 100 µM.
Regarding `COC(=O)/C=C/[C@H]1[C@H](C)N1S(=O)(=O)c1ccc(C)cc1` (stereo partly specified), the TGI in the test with LOX IMVI melanoma, in the test with CCRF-CEM leukemia, in the test on NCI-H522 lung, with NCI-H226 lung, in the test with MDA-MB-231 breast and in the test on SK-OV-3 ovarian was greater than 100 µM each time. Also, the TGI in the test with SK-MEL-28 melanoma, in the test with SN12C renal, with COLO 205 colon and with CAKI-1 renal was greater than 100 µM each time.
For the compound `COC1=C2C[C@](OC)(C#CC=CC#CC2O)CC1(C)C` (stereo partly specified), the TGI with LOX IMVI melanoma, with CCRF-CEM leukemia, in the test on NCI-H522 lung, with NCI-H226 lung, in the test with MDA-MB-231 breast and in the test with SK-MEL-28 melanoma was greater than 100 µM each time. Moreover, the TGI in the test on SN12C renal, in the test with COLO 205 colon and in the test on CAKI-1 renal was greater than 100 µM each time.
Take `O=C1C=C(NCCc2ccc(O)cc2)C(=O)C=C1NCCc1ccc(O)cc1`: the TGI with LOX IMVI melanoma, in the test with CCRF-CEM leukemia, in the test with NCI-H522 lung, with NCI-H226 lung, in the test on MDA-MB-231 breast and with SK-OV-3 ovarian was greater than 100 µM throughout. The TGI in the test with SK-MEL-28 melanoma, in the test with SN12C renal, in the test with COLO 205 colon and in the test on CAKI-1 renal was greater than 100 µM throughout.
For `CCOc1ccnc2c(OC)c(C)c3nc4ccccc4nc3c12`, the TGI with LOX IMVI melanoma, in the test with CCRF-CEM leukemia, with NCI-H522 lung, in the test with NCI-H226 lung, in the test on MDA-MB-231 breast and with SK-OV-3 ovarian was greater than 100 µM throughout. Besides, the TGI in the test with SK-MEL-28 melanoma, in the test with SN12C renal, with COLO 205 colon and with CAKI-1 renal was greater than 100 µM throughout.
In the case of `CC(C)[Si](CC1=CCCCC12C(=O)N(COCC[Si](C)(C)C)c1ccccc12)(C(C)C)C(C)C` (stereo unspecified), the TGI is greater than 100 µM in the test on LOX IMVI melanoma; 36.6 µM in the test with CCRF-CEM leukemia; greater than 100 µM with NCI-H522 lung; greater than 100 µM in the test on NCI-H226 lung; greater than 100 µM in the test on MDA-MB-231 breast; greater than 100 µM in the test on SK-OV-3 ovarian. Besides, the TGI in the test on SK-MEL-28 melanoma, with COLO 205 colon and in the test with CAKI-1 renal was greater than 100 µM in each case.
Consider `O=CC1C(=O)Nc2nc3ccccc3n2C1c1ccccc1` (stereo unspecified), for which the TGI with LOX IMVI melanoma stood at 23.1 µM; in the test on CCRF-CEM leukemia, 75.2 µM; in the test with NCI-H522 lung, 26.3 µM; in the test on NCI-H226 lung, 36.9 µM; in the test on MDA-MB-231 breast it was 44.3 µM; in the test on SK-MEL-28 melanoma, 46.4 µM. Also, the TGI was 28.2 µM in the test with SN12C renal, 26.2 µM in the test with COLO 205 colon and 48.5 µM in the test on CAKI-1 renal.
Turning to `COc1ccc(-c2cc(-c3ccncc3)nc(N)c2-c2ccc(F)cc2)cc1`, the TGI was greater than 100 µM with LOX IMVI melanoma; greater than 100 µM with CCRF-CEM leukemia; 27.1 µM in the test on NCI-H522 lung; greater than 100 µM in the test on NCI-H226 lung; greater than 100 µM in the test with MDA-MB-231 breast; greater than 100 µM in the test on SK-OV-3 ovarian. The TGI was 97.3 µM with COLO 205 colon and greater than 100 µM in the test with CAKI-1 renal.
On to `CC1(C)CC(=O)C(/C=N/c2nc(-c3cccc([N+](=O)[O-])c3)cs2)=C(O)C1`, for which the TGI was 27.2 µM with LOX IMVI melanoma; 5.69 µM with CCRF-CEM leukemia; 23.7 µM with NCI-H522 lung; 36.5 µM with NCI-H226 lung; 43 µM with MDA-MB-231 breast; greater than 100 µM with SK-OV-3 ovarian. In addition, the TGI is 37.6 µM in the test with SN12C renal, 30.9 µM with COLO 205 colon and 23.4 µM in the test with CAKI-1 renal.
On to `NC(=O)NC(=O)c1cccc(C(=O)NC(N)=O)n1`, for which the TGI in the test on LOX IMVI melanoma, in the test on CCRF-CEM leukemia, with NCI-H522 lung, in the test with NCI-H226 lung, in the test with MDA-MB-231 breast and in the test with SK-OV-3 ovarian was greater than 100 µM in each case. Further, the TGI in the test with SK-MEL-28 melanoma, with SN12C renal and with CAKI-1 renal was greater than 100 µM in each case.
In the case of `Nc1nc(=O)n(C2CC(O)C(CO)O2)c2nc(-c3ccc(-c4ccccc4)cc3)cnc12` (stereo unspecified), the TGI in the test with LOX IMVI melanoma is greater than 100 µM; with CCRF-CEM leukemia it was greater than 100 µM; with NCI-H522 lung, 48.9 µM; in the test with NCI-H226 lung, 64.9 µM; in the test with MDA-MB-231 breast, 50.1 µM; with SK-OV-3 ovarian, greater than 100 µM. For the same compound, the TGI with SN12C renal, with COLO 205 colon and in the test on CAKI-1 renal was greater than 100 µM each time.
As to `O=c1[nH]nc(-c2ccccc2)c2[nH]c3c(c12)CCCc1ccccc1-3`, the TGI was 33.7 µM in the test on LOX IMVI melanoma; 47.2 µM in the test with CCRF-CEM leukemia; 27.1 µM in the test on NCI-H522 lung; 37.5 µM with NCI-H226 lung; 52.4 µM in the test on MDA-MB-231 breast; greater than 100 µM with SK-OV-3 ovarian. Besides, the TGI with SN12C renal is 35.8 µM; with COLO 205 colon, 22.2 µM; with CAKI-1 renal, greater than 100 µM.
As to `C[C@@H](Br)[C@@H]1CC[C@H]2c3[nH]c4ccccc4c3CCN2C1`, the TGI in the test on LOX IMVI melanoma is 32.9 µM; with CCRF-CEM leukemia it was 54.8 µM; in the test with NCI-H522 lung it was 29.5 µM; in the test with NCI-H226 lung, greater than 100 µM; with MDA-MB-231 breast, 41.1 µM; with SK-OV-3 ovarian, 87.2 µM. Besides, the TGI with SK-MEL-28 melanoma was greater than 100 µM; with COLO 205 colon it was 26.3 µM; in the test with CAKI-1 renal, 52.4 µM.
In the case of `O=C1CSC2(CC(/C=C/c3ccccc3[N+](=O)[O-])=NN2c2cccc(S(=O)(=O)O)c2)N1c1nc2ccccc2s1` (stereo unspecified), the TGI in the test with LOX IMVI melanoma was 34.5 µM; in the test on CCRF-CEM leukemia, 43.5 µM; with NCI-H522 lung, 22.1 µM; in the test on NCI-H226 lung, 44.1 µM; in the test on MDA-MB-231 breast it was 32 µM; with SK-MEL-28 melanoma, greater than 75 µM. The TGI is 54.9 µM with SN12C renal, greater than 75 µM in the test with COLO 205 colon and greater than 75 µM with CAKI-1 renal.
With `O=C(CN1CCOCC1)c1ccc2c(c1)oc(=O)n2CCN1CCCCC1`, the TGI with LOX IMVI melanoma, with CCRF-CEM leukemia, in the test on NCI-H226 lung, with MDA-MB-231 breast, with SK-OV-3 ovarian and with SK-MEL-28 melanoma was greater than 100 µM throughout. Also, the TGI with SN12C renal, in the test with COLO 205 colon and with CAKI-1 renal was greater than 100 µM in each case.
In the case of `Cc1c(OCc2cccc3ccccc23)ccc2c(=O)cc(S)oc12`, the TGI in the test on LOX IMVI melanoma is 47.5 µM; in the test with CCRF-CEM leukemia it was 54.1 µM; with NCI-H522 lung, 89.4 µM; in the test with NCI-H226 lung, greater than 100 µM; in the test on MDA-MB-231 breast it was greater than 100 µM; with SK-MEL-28 melanoma, greater than 100 µM. Also, the TGI with SN12C renal, in the test with COLO 205 colon and in the test with CAKI-1 renal was greater than 100 µM in each case.
On to `C=C(C)[C@H]1C=C[C@@H](OC(C)=O)[C@@]2(COC(C)=O)[C@H](OC(=O)CCC)[C@H]3[C@@H](OC(C)=O)[C@@H](C)C[C@]3(O)C(=O)[C@@](C)(OC(C)=O)[C@H]12`, for which the TGI with LOX IMVI melanoma, in the test on CCRF-CEM leukemia, in the test on NCI-H522 lung, with NCI-H226 lung, in the test with MDA-MB-231 breast and in the test on SK-MEL-28 melanoma was greater than 100 µM in each case. Further, the TGI in the test with SN12C renal was greater than 100 µM; with COLO 205 colon, 65 µM; in the test with CAKI-1 renal it was greater than 100 µM.
